Results as given in patent US20110306606A1, “NOVEL 2,6-SUBSTITUTED-3-NITROPYRIDINE DERIVATIVE, METHOD FOR PREPARING SAME, AND PHARMACEUTICAL COMPOSITION INCLUDING SAME” (priority 2008, published 2011).
Read-outs that look alike come from different tables or passages of the source.

What was measured:
[1] = system: Osteoblasts (Calvarial cells); assay: Alkaline phosphatase (ALP) activity in osteoblasts (Calvarial cells); type: cell-based, mice; details: 1 μM compound, 3 days; for activity at 1 µM: Mus musculus, 72 h, Calvarial cell, read-out: ALP activity (1 μM, % of Control) Calvarial cell
Procedure: Differentiation and activity of osteoblasts were indirectly evaluated by measuring an ALP activity having a close relationship with osteogenesis.
Osteoblasts (Calvarial cells) prepared in Experimental Example 1 and MC3T3-E1 cells (available from RIKEN Cell Bank, Japan) were collected in α-MEM supplemented with 10% FBS, followed by cell counting. The cells were dispensed into 24-well cultureware at a density of 2×10^4 cells/well. After culturing of the cells for 24 hours, the culture media were discarded and replaced with fresh media in which test compounds were diluted to a concentration of 1 μM (1 mL/well). In addition, the vehicle control group containing 0.1% DMSO was also treated. […] When the experiment was terminated, the supernatant was removed and the cells were washed three times with cold phosphate buffer at 4°. 0.2% Triton X-100 was added to the washed cells which were then subjected to three cycles of freezing at −70° and thawing at room temperature for the complete lysis of cells. The cell extracts were pooled and centrifuged to collect the cell supernatant which was used for the measurement of ALP activity and proteins. The protein concentration was measured using a BCA assay kit (manufactured by Sigma-Aldrich). For the measurement of ALP activity, p-nitrophenylphosphate was added to the cell supernatant which was then incubated at 37° for 30 minutes, and the reaction was terminated with the addition of 50 μL of 0.2N sodium hydroxide. The standard curve was plotted at the absorbance of 405 nm using p-nitrophenol as a standard material and then the absorbance of test materials thus reacted was measured to determine the production amount of p-nitrophenol.
The ALP activity was calculated by dividing the amount of p-nitrophenol produced from each test material by the protein amount and the reaction time. Therefore, the unit of ALP activity was given in terms of p-nitrophenol/μg protein/min. The results are given in Tables 28-1 and 28-2 where the ALP activity unit of each test material was given in terms of % change through the comparison between the individual test materials and the vehicle control group.

[2] = system: Osteoblasts (Calvarial cells); assay: Cytotoxicity test (MTT); details: 1 μM compound, 72 hours, in comparison with vehicle control
[3] = system: Osteoblasts (Calvarial cells); details: ICR, mouse, 72 h, 1 μM

Structure (SMILES)	ALP activity (1 μM, % of Control) Calvarial cell [1]	Cell viability (%) Calvarial cell [2] [%]	activity at 1 µM [1] [%]	Cell viability (%) Calvarial cell [3] [%]
CC1=NCCN1c1ccc([N+](=O)[O-])c(Nc2ccc(C)cc2)n1 [Compound 6, 2-(4-methylphenylamino)-6-[(2-methyl-4,5-dihydro)imidazol-1-yl]-3-nitropyridine]	116 % of Control	94		
Cc1ccc(Nc2nc(N3CCOCC3)ccc2[N+](=O)[O-])cc1 [Compound 14, 2-(4-methylphenylamino)-6-morpholino-3-nitropyridine]			135	99
CC(C)Nc1ccc([N+](=O)[O-])c(Nc2ccc(C(C)(C)C)cc2)n1 [Compound 31, 2-[4-(t-butyl)phenylamino]-6-(isopropylamino)-3-nitropyridine]			134	108
CC1=NCCN1c1ccc([N+](=O)[O-])c(Nc2ccc(C(C)(C)C)cc2)n1 [Compound 35, 2-[4-(t-butyl)phenylamino]-6-[(2-methyl-4,5-dihydro)imidazol-1-yl]-3-nitropyridine]	132 % of Control	96		
CCN(CCO)c1ccc([N+](=O)[O-])c(Nc2ccc(C#N)cc2)n1 [Compound 51, 2-(4-cyanophenylamino)-6-[(N-ethyl-2-hydroxy)ethylamino]-3-nitropyridine]	116 % of Control	100		
CNc1ccc([N+](=O)[O-])c(Nc2ccc(N)cc2)n1 [Compound 57, 2-[4-(amino)phenylamino]-6-(methylamino)-3-nitropyridine]			112	103
CC(C)Nc1ccc([N+](=O)[O-])c(Nc2ccc(N)cc2)n1 [Compound 58, 2-[4-(amino)phenylamino]-6-(isopropylamino)-3-nitropyridine]			127	107
CC(C)(C)Nc1ccc([N+](=O)[O-])c(Nc2ccc(N)cc2)n1 [Compound 60, 2-[4-(amino)phenylamino]-6-(t-butylamino)-3-nitropyridine]			131	119
Nc1cccc(Nc2nc(N3CCC(N)CC3)ccc2[N+](=O)[O-])c1 [Compound 79, 2-[3-(amino)phenylamino]-6-(4-aminopiperidino)-3-nitropyridine]			133	99
Nc1cccc(Nc2nc(NCc3cccnc3)ccc2[N+](=O)[O-])c1 [Compound 80, 2-[3-(amino)phenylamino]-6-[(3-pyridyl)methylamino]-3-nitropyridine]			116	102
Nc1cccc(Nc2nc(NCc3ccncc3)ccc2[N+](=O)[O-])c1 [Compound 81, 2-[3-(amino)phenylamino]-6-[(4-pyridyl)methylamino]-3-nitropyridine]			123	100
CNc1ccc([N+](=O)[O-])c(Nc2ccc(-n3ccnc3)cc2)n1 [Compound 86, 2-[4-(imidazol-1-yl)phenylamino]-6-(methylamino)-3-nitropyridine]			144	111
CCN(CCO)c1ccc([N+](=O)[O-])c(Nc2ccc(N3CCOCC3)cc2)n1 [Compound 118, 2-(4-morpholinophenylamino)-6-[(N-ethyl-2-hydroxy)ethylamino]-3-nitropyridine]	111 % of Control	102		
CNc1ccc([N+](=O)[O-])c(Nc2ccc(N3CCOCC3)c(F)c2)n1 [Compound 191, 2-[(3-fluoro-4-morpholino)phenylamino]-6-(methylamino)-3-nitropyridine]	156 % of Control	97		
CC(C)Nc1ccc([N+](=O)[O-])c(Nc2ccc(N3CCOCC3)c(F)c2)n1 [Compound 192, 2-[(3-fluoro-4-morpholino)phenylamino]-6-(isopropylamino)-3-nitropyridine]	113 % of Control	99		
CNc1ccc([N+](=O)[O-])c(Nc2ccc(N3CCSCC3)c(F)c2)n1 [Compound 203, 2-[(3-fluoro-4-thiomorpholino)phenylamino]-6-(methylamino)-3-nitropyridine]	154 % of Control	97		
CC(C)CNc1ccc([N+](=O)[O-])c(Nc2ccc(N3CCSCC3)c(F)c2)n1 [Compound 205, 2-[(3-fluoro-4-thiomorpholino)phenylamino]-6-(isobutylamino)-3-nitropyridine]	132 % of Control	109		
O=[N+]([O-])c1ccc(N2CCC(O)CC2)nc1Nc1ccc(N2CCSCC2)c(F)c1 [Compound 206, 2-[(3-fluoro-4-thiomorpholino)phenylamino]-6-(4-hydroxypiperidino)-3-nitropyridine]	124 % of Control	102		
CC(C)Nc1ccc([N+](=O)[O-])c(Nc2ccc(N3CCCCC3)c(F)c2)n1 [Compound 224, 2-[(3-fluoro-4-piperidino)phenylamino]-6-(isopropylamino)-3-nitropyridine]	125 % of Control	101		
CC(C)Nc1ccc([N+](=O)[O-])c(Nc2ccc(N3CCC(O)CC3)c(F)c2)n1 [Compound 237, 2-{[3-fluoro-4-(4-hydroxypiperidino)]phenylamino}-6-(isopropylamino)-3-nitropyridine]	117 % of Control	99		
O=[N+]([O-])c1ccc(N2CCC(O)CC2)nc1Nc1ccc(N2CCC(O)CC2)c(F)c1 [Compound 239, 2-{[3-fluoro-4-(4-hydroxypiperidino)]phenylamino}-6-(4-hydroxypiperidino)-3-nitropyridine]	130 % of Control	98		
CC1=NCCN1c1ccc([N+](=O)[O-])c(Nc2ccc(N3CCC(N)CC3)c(F)c2)n1 [Compound 252, 2-{[3-fluoro-4-(4-aminopiperidino)]phenylamino}-6-[(2-methyl-4,5-dihydro)imidazol-1-yl]-3-nitropyridine]	112 % of Control	103		
NC1CCN(c2ccc(Nc3nc(N4CCNCC4)ccc3[N+](=O)[O-])cc2F)CC1 [Compound 253, 2-{[3-fluoro-4-(4-aminopiperidino)]phenylamino}-6-(piperazin-1-yl)-3-nitropyridine]	115 % of Control	104		
NC1CCN(c2ccc(Nc3nc(NCc4cccnc4)ccc3[N+](=O)[O-])cc2F)CC1 [Compound 257, 2-{[3-fluoro-4-(4-aminopiperidino)]phenylamino}-6-[(3-pyridyl)methylamino]-3-nitropyridine]	122 % of Control	101		
NC1CCN(c2ccc(Nc3nc(NCc4ccncc4)ccc3[N+](=O)[O-])cc2F)CC1 [Compound 258, 2-{[3-fluoro-4-(4-aminopiperidino)]phenylamino}-6-[(4-pyridyl)methylamino]-3-nitropyridine]	115 % of Control	101		
